Measured values taken from the supplement of paper PMC10307832.

What was measured:
Assay in all cases: relative viability (nuclei count vs DMSO), 5 days (fraction); higher = more cells survive
[1] = compound: Cc1ccc(C(=O)N(CCCN)[C@@H](c2nc3cc(Cl)ccc3c(=O)n2Cc2ccccc2)C(C)C)cc1 [Ispinesib] + NC(=O)Nc1cc(-c2cccc(F)c2)sc1C(=O)N[C@H]1CCCNC1 [AZD7762] (partner 0.2 µM)
In short: (§1)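 Each reported value is a median over duplicate plates. It expresses relative viability: treated-well nuclei count divided by vehicle-well nuclei count. Lung cancer cell lines in 1536-well plates were dosed by pin tool a day after seeding, alone with one drug or with a fixed anchor-drug dose plus five library-drug doses (not always all listed) in √10 steps, and nuclei were counted after 5 days.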

[2] = compound: Cc1ccc(C(=O)N(CCCN)[C@@H](c2nc3cc(Cl)ccc3c(=O)n2Cc2ccccc2)C(C)C)cc1 [Ispinesib] + CCNC(=O)c1noc(-c2cc(C(C)C)c(O)cc2O)c1-c1ccc(CN2CCOCC2)cc1 [Luminespib] (partner 0.01 µM)
In short: as §1

[3] = compound: C[C@]1(O)C[C@@H](c2nc(-c3ccc4ccc(-c5ccccc5)nc4c3)c3c(N)nccn32)C1 [Linsitinib] + Cc1cc(Nc2cc(N3CCN(C)CC3)nc(Sc3ccc(NC(=O)C4CC4)cc3)n2)n[nH]1 [Tozasertib] (partner 0.1 µM)
In short: as §1

[4] = compound: C[C@]1(O)C[C@@H](c2nc(-c3ccc4ccc(-c5ccccc5)nc4c3)c3c(N)nccn32)C1 [Linsitinib] + CC(C)C[C@H](NC(=O)[C@H](Cc1ccccc1)NC(=O)c1cnccn1)B(O)O [Bortezomib] (partner 0.002 µM)
In short: as §1

Cell Line	relative viability ([1]; first compound 0.001 µM)	relative viability ([1]; first compound 0.003162 µM)	relative viability ([1]; first compound 0.01 µM)	relative viability ([1]; first compound 0.03162 µM)	relative viability ([1]; first compound 0.1 µM)	relative viability ([2]; first compound 0.001 µM)	relative viability ([2]; first compound 0.003162 µM)	relative viability ([2]; first compound 0.01 µM)	relative viability ([2]; first compound 0.03162 µM)	relative viability ([2]; first compound 0.1 µM)	relative viability ([3]; first compound 0.01 µM)	relative viability ([3]; first compound 0.03162 µM)	relative viability ([3]; first compound 0.1 µM)	relative viability ([3]; first compound 0.3162 µM)	relative viability ([3]; first compound 1 µM)	relative viability ([4]; first compound 0.01 µM)	relative viability ([4]; first compound 0.03162 µM)	relative viability ([4]; first compound 0.1 µM)	relative viability ([4]; first compound 1 µM)	relative viability ([4]; first compound 0.3162 µM)
LK-2	0.358	0.552	0.306	0.154	0.185	0.186	0.174	0.226	0.224	0.202	0.179	0.173	0.172	0.18	0.177	–	–	–	–	–
NCI-H358	0.654	0.462	0.514	0.433	0.253	0.424	0.435	0.549	0.405	0.259	0.0907	0.0851	0.114	0.0862	0.0939	–	–	–	–	–
NCI-H520	–	–	–	–	–	0.24	0.17	0.207	0.206	0.204	0.426	0.39	0.494	–	0.408	0.666	0.331	0.754	0.62	–
NCI-H522	0.782	1.01	0.913	0.845	0.316	1.02	1.1	1.17	0.922	1.11	0.525	0.516	0.521	–	0.514	–	–	–	–	–
NCI-H661	–	–	–	–	–	0.926	0.913	0.921	0.586	0.224	0.361	0.383	0.335	0.308	0.368	0.893	0.801	0.761	0.749	0.986
NCI-H1299	–	–	–	–	–	–	–	–	–	–	–	–	–	–	–	1.06	0.972	1.05	0.986	0.944
NCI-H1395	0.411	0.403	0.356	0.31	0.355	0.793	0.769	0.817	0.655	0.447	0.838	0.768	0.723	0.731	0.667	–	–	–	–	–
NCI-H1563	–	–	–	–	–	0.506	0.462	0.523	0.523	0.55	–	–	–	–	–	0.835	0.86	0.87	0.827	0.719
NCI-H1623	–	–	–	–	–	0.638	0.487	0.578	0.526	0.455	0.363	0.445	0.412	–	0.364	–	–	–	–	–
NCI-H1648	0.653	0.774	0.682	0.616	0.273	–	–	–	–	–	0.5	0.697	0.412	–	0.396	–	–	–	–	–
NCI-H1650	–	–	–	–	–	0.182	0.185	0.217	0.181	0.198	0.412	0.549	0.412	0.323	0.288	0.208	0.202	0.184	0.223	0.182
NCI-H1703	0.16	0.121	0.134	0.0817	0.0822	–	–	–	–	–	–	–	–	–	–	0.416	–	0.317	0.314	0.288
NCI-H1792	0.73	0.742	0.828	0.119	0.157	0.821	0.435	0.705	0.443	0.471	–	–	–	–	–	0.971	0.953	0.928	0.704	0.775
NCI-H1793	0.476	0.494	0.352	0.412	0.295	0.198	0.169	0.749	0.144	0.162	0.388	0.454	0.316	0.313	0.274	–	–	–	–	–
NCI-H1944	0.443	0.483	0.482	0.32	0.189	0.75	0.781	0.968	0.475	0.617	0.247	0.256	0.235	0.209	0.221	–	–	–	–	–
NCI-H2009	–	–	–	–	–	1.12	1.13	1.19	0.769	0.251	0.72	0.63	0.743	–	0.629	1.01	0.926	1.07	0.898	0.185
NCI-H2023	–	–	–	–	–	0.793	0.628	1.07	0.29	0.179	0.256	0.228	0.36	0.196	0.177	0.876	0.724	1	0.602	0.239
NCI-H2170	0.897	0.88	0.909	0.225	0.17	0.74	0.53	0.964	0.351	0.448	0.732	0.76	0.681	0.513	0.678	–	–	–	–	–
NCI-H2228	–	–	–	–	–	0.121	0.14	0.228	0.127	0.159	0.273	0.308	0.272	0.296	0.199	1.05	0.89	0.787	0.765	0.72
NCI-H2342	0.609	0.432	0.528	0.411	0.373	0.746	0.768	0.698	0.703	0.592	0.554	0.54	0.516	0.651	0.412	–	–	–	–	–
SK-LU-1	–	–	–	–	–	0.212	0.224	0.219	0.194	0.178	0.357	–	0.383	0.203	0.243	1.19	0.659	1.25	0.561	0.492
SK-MES-1	–	–	–	–	–	0.954	0.691	0.966	0.203	0.221	0.92	0.895	0.927	0.8	0.676	–	–	–	–	–
SW 900	0.635	0.492	0.648	0.565	0.259	0.206	0.171	0.164	0.183	0.19	0.635	0.598	0.535	0.513	0.342	–	–	–	–	–
SW 1573	–	–	–	–	–	0.234	0.198	0.13	0.151	0.148	0.213	0.171	0.189	0.186	0.136	1.18	1.19	1.1	0.811	0.797
